Test results reported in the NIST ThermoML archive (doi:10.1021/je800416y).

Conditions: 101.33 kPa, Liquid

CN(CCO)CCO [N-methyldiethanolamine]
Conditions | mass density [kg/m3]
298.15 K | 1038.22
303.15 K | 1034.49
308.15 K | 1030.75
313.15 K | 1026.99
318.15 K | 1023.25
323.15 K | 1019.47
328.15 K | 1015.64
333.15 K | 1011.8
338.15 K | 1007.92
